The results in this text go back to patent US11193114B2, “Immunogenic peptides for use in the prevention and/or treatment of infectious diseases, autoimmune diseases, immune responses to allofactors, allergic diseases, tumors, graft rejection and immune responses against viral vectors used for gene therapy or gene vaccination” (IMNATE SARL, priority 2010, dated 2021).

The test system of experiment [1] is NOD mice. In words: Prevention of spontaneous insulin-dependent diabetes in NOD mice with GAD65 derived peptides. The format is in vivo. The following applies: female NOD mice, 4 sc injections from the age of 4 weeks. An excerpt: GAD65 contains amino acid sequences with the capacity to bind to CD1d. Thus, the sequence PQHTNVCFWFV (SEQ ID NO: 11), corresponding to amino acids 501 to 507 of GAD65, is produced by synthesis, as well as its counterpart encompassing a thioreductase motif within flanking residues: peptide of CHGCGGHTNVCFWFV (SEQ ID NO: 7) (with the thioreductase motif underlined and a linker of 2 glycines between the motif and the CD1d binding motif).
Female NOD mice are immunized from the age of 4 weeks by 4 subcutaneous injections of peptides of either SEQ ID7 or natural sequence, and glycaemia is followed in each of these groups, by comparison to a non-immunized group.

Experiment [2] has as its system Ad5 viral particles. Nature of the experiment: Anti-Ad5 IgG antibody response after peptide immunization and Ad5 injection (direct binding ELISA). The following applies: four sc injections of 50 μg peptide in alum, then 2 IV Ad5 injections; serum 10 days after last Ad5 injection. The experiment is classed as in vivo, C57BL/6 mice. The method, then:
C57BL/6 mice (n=6) were immunized by four subcutaneous injections of 50 μg of peptide of SEQ ID NO: 2 in alum carried out at one-week interval.
Such peptide contains a CD1d-restricted NKT cell epitope of hex on protein of adenovirus (Ad5) and a thioreductase motif in flanking residues. A control group (n=6) of mice received physiological serum in alum instead of peptide. All mice then received 2 injections of 109 Ad5 viral particles by the IV route, separated by I week. Ten days after the last Ad5 injection, mice were bled and the concentration of total IgG antibodies to Ad5 particles was measured in a direct binding ELISA Briefly, Ad5 viral particles were insolubilized on polystyrene plates, followed by washing and incubation with a dilution of mouse serum. After a second washing, the binding of mouse anti-Ad5 antibodies was detected by addition of a goat antiserum to mouse IgG. […] Results are given in arbitrary units as means+SEM.

The subject of experiment [3] is EG7 tumor cells. Nature of the experiment: Apoptosis of EG7 tumor cells by CD4+ NKT cell lines from peptide-immunized mice (Annexin V / 7-AAD). The experiment is classed as cell-based, mouse (C57BL/6, H-2b). The following applies: EG7 cells cultured 18 h at ratio 1/1 with NKT cell lines from mice immunized with the peptide. On the procedure: C57BL/6 mice (n=6) were immunized by four subcutaneous injections of 50 μg of peptide of SEQ ID NO: 3 in alum carried out at one-week interval.
Such peptide contains a CD1d-restricted NKT cell epitope derived from ovalbumin and a thioreductase motif in flanking residues. A control group (n=6) of mice received physiological serum in alum instead of peptide. Ten days after the last immunization the mice were sacrificed and spleen CD4+ T cells were prepared by magnetic cell sorting. Such cells were stimulated twice with the immunizing peptide in vitro before assessing their activation state as measured by the production of IL-4 and IFN-gamma.
CD4+ NKT cell lines were then assayed in vitro for their capacity to kill EG7 tumor cells. EG7 tumor cells (H-2b) are derived from a thymoma transduced with an ova construct. A CD1d restricted ova epitope is presented by such cells, which is known to be insufficient to trigger NKT activation and tumor cell killing.
EG7 cells were labeled at membrane level with 1 μM DiOC18 (3,3′ dioctadecycloxacarbocyanine perchlorate from Invitrogen). […] After 18 h, cells were harvested and stained for Annexin V and 7-AAD following manufacturer's instructions (Apoptosis Detection kit; BD Biosciences) and analysed on a FACSCantoll flow cytometer (BD Biosciences).

Experiment [4] relates to EAE (experimental autoimmune encephalomyelitis) in C57BL/6 mice. In words: Prevention of EAE by pre-immunization with MOG peptide. The format is in vivo. As to conditions: four sc immunizations (50 μg) before disease induction with MOG 35-55. On the procedure: MOG contains a sequence which binds to CD1d and activates NKT cells. Thus, peptide of sequence PHFLRVPCWKI (SEQ ID NO: 10) is produced by synthesis and a thioreductase-containing peptide of sequence CHGCGGFLRVPCWKI (peptide of SEQ ID NO: 6, in which the thioreductase motif is underlined and a linker of 2 glycines between the motif and the CD1d-binding motif).
Groups of C57BL/6 mice are immunized four times subcutaneously (50 μg) with peptide of SEQ ID6 or, as a control, with peptide in natural sequence. Ten days after the last immunization, all mice, including a group of naive, non-immunized animals, are induced into disease by subcutaneous injection of 100 μg MOG 35-55 peptide/400 μg Mycobacterium butyricum in CFA and ip injection of 300 ng Bordetella pertussis in NaCl. At day +2, a second injection of B. pertussis is given.
Signs of EAE are followed over time.

For experiment [5], the system named is Factor VIII specific CD4+ T cells. Nature of the experiment: Activation (IL-4, IFN-gamma production) of Factor VIII specific CD4+ T cells from mice immunized with peptide, then injected with human factor VIII. The format is in vivo, BALB/c Factor VIII KO mice. As to conditions: mice immunized 4 times with 50 μg peptide vs control group without peptide; spleen CD4+ T cells restimulated in vitro. The method, then:
BALB/c Factor VIII KO mice (group A) were immunized 4 times at 1 week interval with 50 μg of peptide 2196, which contains a CD1d-restricted NKT cell epitope and a C-XX-C (SEQ ID NO: 14) thioreductase motif within flanking residues (SEQ ID NO: 1).
Human factor VIII was then injected by the subcutaneous route using 10 IU per injection on 5 occasions separated by one week. Ten days after the last immunization the mice were sacrificed and spleen CD4+ T cells were prepared by magnetic cell sorting. Such cells were stimulated twice with the immunizing peptide and FVIII in vitro before assessing their activation state as measured by the production of IL-4 and IFN-gamma. […] The results (FIG. 1) show a 10-fold reduction of IL-4 production by Factor VIII specific CD4+ T cells obtained from mice immunized with the peptide as compared to the control group, and a 7-fold reduction in the production of IFN-gamma. Results are shown as means+SEM.

The test system of experiment [6] is Der p I induced asthma in BALB/c mice. Nature of the experiment: Prevention of Der p I induced allergic asthma by peptide immunization. The format is in vivo. The following applies: 4 injections of 50 μg peptide; Der p I nasal instillation 10 days after last immunization. An excerpt: Allergens from the house dust mite, D. pteronyssinus, are frequently involved in allergic asthma. Der p I is the main allergen of D. pteronyssinus. The sequence of Der p I contains a CD1d binding motif corresponding to amino acid sequence 38 to 44. A peptide of sequence WAFSGVAATES (SEQ ID NO: 12) is produced by synthesis as well as its counterpart containing a thioreductase motif Thus, peptide of CGPCGGFSGVAATES (SEQ ID NO: 8) contains a thioreductase motif (underlined) and a linker of 2 glycines between the motif and the CD1d-binding motif.
Allergic asthma can be induced in BALB/c mice by nasal instillations of 100 μg Der p I administered on 3 consecutive days. Asthma is characterized by bronchial hyperreactivity and attraction of eosinophil infiltrates into the lung.
BALB/c mice are immunized by 4 injections of 50 μg of peptides of either SEQ ID8 or peptide in natural sequence as a control. Der p I is administered by nasal instillation 10 days after the last immunization.

Experiment [7] deals with BALB/c-derived ALK+ tumor cell line (VAC). Nature of the experiment: Killing of VAC ALK+ tumor cells by NKT cells stimulated with ALK peptide (Annexin-V binding by FACS). The experiment is classed as cell-based, BALB/c mice. As to conditions: VAC cells co-cultured with BALB/c NKT cells stimulated with the peptide; mean of triplicates. On the procedure:
Co-culture with a BALB/c-derived ALK+tumor cell line (VAC) was carried out as described above. Apoptosis of tumor cells was measured by evaluating Annexin-V binding by FACS.
Background: Flow cytometry measures light scatter and fluorescence of single cells or particles in a stream.

Experiment [8] has as its system R113 tumor cells. In words: Killing of R113 tumor cells by NKT cells stimulated with ALK peptide (Annexin V binding). The format is cell-based, C57BL/6 mice. As to conditions: 20 h co-culture with NKT cells stimulated with the peptide. The method, then:
CD4 T cells (C57BL/6, H-2b background) obtained from the spleen of naive mice were stimulated four times with autologous dendritic cells loaded with a CD1d-restricted NKT cell epitope of ALK, to which a thioreductase motif of the C-XX-C (SEQ ID NO: 14) format was added within flanking residues. (Peptide of CHGCGGWLQIVTWWGPGS (SEQ ID NO: 5) (with thioreductase motif underlined and 2 glycines used as linker between the motif and the CD1d-restricted epitope)).
As NKT cells have per se a cytolytic activity, we included cells which were stimulated in parallel experiments by exposure to the same CD1d-restricted NKT epitope in natural sequence, without thioredox motif (WLQIVTWWGPGS) (SEQ ID NO: 9).
Ten days after the last stimulation, CD4 T cells were washed and added to cell culture microplates containing 104 Rl13 tum or cells at a 2 to 1 ratio (CD4 to tum or cells). Rl13 is a tumor B cell line obtained from C57BL/6 mice, which constitutively expresses ALK.
After 20 h of co-culture, Rl13 tumor cells were evaluated for Annexin V binding used as marker of cell apoptosis.

For CHGCGGHTNVCFWFV [SEQ ID7], the glycaemia result in experiment [1] is reported as “prevented from hyperglycaemia”. On to “CHG CGG FIGLMYY (CHGCGGFIGLMYY) [SEQ ID NO: 2]”, for which the “total IgG antibodies to Ad5 particles” value in experiment [2] is given as “did not produce significant amounts of antibodies”. “CGH CGG FDKLPGF (CGHCGGFDKLPGF) [SEQ ID3]”: in experiment [3], the “apoptosis of EG7 tumor cells” value was “are induced into apoptosis”. Regarding “CHGCGGFLRVPCWKI [SEQ ID6, thioreductase-containing MOG peptide]”, the “signs of EAE” value in experiment [4] is on record as “do not develop EAE”.

As to “CGH CGG FTN MFA TWS PSK (CGHCGGFTNMFATWSPSK) [peptide 2196]”, in experiment [5], the “reduction in the production of IFN-gamma by Factor VIII specific CD4+ T cells” value was determined as 7 fold and the “reduction of IL-4 production by Factor VIII specific CD4+ T cells” value turned out to be 10 fold. CGPCGGFSGVAATES [SEQ ID8]: in experiment [6], the “airway reactivity to inhalation of methacholine” value is listed as “do not develop airway reactivity to inhalation of methacholine” and the “lung infiltration with eosinophils” value is “do not show lung infiltration with eosinophils”.

Regarding “CHGCGGWLQIVTWWGPGS [peptide of sequence 1]”, the “tumor cell death (Annexin-V binding)” value in experiment [7] was determined as 25%. In addition, the “increase in tumor cell death as compared to tumor cells cultured alone” value in experiment [8] is 4.5 fold. In addition, the “tumor cell death (Annexin V binding)” value in experiment [8] (2 to 1 ratio, mean of triplicates) was determined as 18%. In the case of “PQHTNVCFWFV [SEQ ID NO: 11, reference compound]”, in experiment [1], the glycaemia result is recorded as “develop hyperglycaemia starting after the 14th week”.
